Consider 30 compounds from ChEMBL document CHEMBL1140510, “New 1,2,3,4-tetrahydropyrrolo[3,4-b]indole derivatives as selective CB2 receptor agonists” (Bioorg Med Chem Lett, 2007).

For assay [1], the target named is Cannabinoid receptor 1 (Homo sapiens, UniProt P21554). As to the kind of experiment: Binding affinity to human CB1 receptor.
Assay [2] has as its target T1, Cannabinoid receptor 2 (Homo sapiens, UniProt P34972). As to the kind of experiment: Binding affinity to human CB2 receptor.
For assay [3], the species on record is Homo sapiens. As to the kind of experiment: Selectivity for human CB2 receptor over human CB1 receptor.
Assay [4] concerns the target T1, Cannabinoid receptor 2. Description: Agonist activity at human CB2 receptor by GTPgamma[35S] assay. Type of assay: functional.
The target of assay [5] is T1, Cannabinoid receptor 2. As to the kind of experiment: Agonist activity at human CB2 receptor by GTPgamma[35S] assay relative to WIN-55212-2. In kind it is functional.

Cannabinoid receptor 1, sequence (P21554 whole entry): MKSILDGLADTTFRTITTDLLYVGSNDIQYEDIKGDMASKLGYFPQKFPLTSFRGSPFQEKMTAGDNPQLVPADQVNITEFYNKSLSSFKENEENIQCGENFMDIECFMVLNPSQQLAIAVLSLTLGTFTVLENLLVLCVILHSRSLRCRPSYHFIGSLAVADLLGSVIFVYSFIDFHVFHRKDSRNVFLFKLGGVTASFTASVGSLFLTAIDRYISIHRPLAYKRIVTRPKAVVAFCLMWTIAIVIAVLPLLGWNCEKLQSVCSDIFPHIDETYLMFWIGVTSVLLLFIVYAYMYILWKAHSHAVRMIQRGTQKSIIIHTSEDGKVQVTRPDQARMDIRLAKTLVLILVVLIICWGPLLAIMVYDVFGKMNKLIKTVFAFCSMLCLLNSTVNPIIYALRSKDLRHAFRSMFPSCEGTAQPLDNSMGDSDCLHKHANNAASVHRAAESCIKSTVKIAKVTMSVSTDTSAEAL
T1 sequence (P34972 whole entry): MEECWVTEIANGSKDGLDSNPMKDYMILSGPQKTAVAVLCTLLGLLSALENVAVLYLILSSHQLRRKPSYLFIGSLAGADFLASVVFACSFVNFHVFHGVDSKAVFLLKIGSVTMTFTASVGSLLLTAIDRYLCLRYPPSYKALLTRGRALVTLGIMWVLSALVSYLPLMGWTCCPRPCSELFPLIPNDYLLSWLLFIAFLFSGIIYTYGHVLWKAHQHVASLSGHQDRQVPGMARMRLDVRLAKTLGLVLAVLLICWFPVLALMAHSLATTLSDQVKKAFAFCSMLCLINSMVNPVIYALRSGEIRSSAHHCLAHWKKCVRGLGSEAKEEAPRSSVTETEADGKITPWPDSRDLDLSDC

As to `CC1CCN(C(=O)c2ccc3c(c2)c2c(n3C)CN(C3CCCC3)C2)CC1`, the inhibitory constant (Ki) (as a rule, a dissociation constant, usually derived from enzyme kinetics or from competition with a known ligand) in assay [1] was 1.81 µM; in assay [2], 0.0847 µM. The Ratio Ki in assay [3] was 21.4.

On to `CCS(=O)(=O)n1c2c(c3cc(C(=O)N4CCC(C)CC4)ccc31)CN(C1CCCC1)C2`, for which the figures for the Ki in assay [1] and in assay [2] were 0.0663 µM and 0.007 µM, respectively. Moreover, the midpoint of the response in assay [4], the EC50, lay at 0.0008 µM. In addition, the Emax (commonly the greatest response seen or fitted, relative to the assay's reference) in assay [5] amounted to 110%. Moreover, the Ratio Ki in assay [3] is 9.4.

Consider `CCS(=O)(=O)n1c2c(c3cc(C(=O)N4CCC(C)CC4)ccc31)CN(C(C)C)C2`, for which the inhibitory constant (Ki) was 0.418 µM in assay [1] and 0.0089 µM in assay [2]. Moreover, the 50% effective concentration (EC50) – broadly, the concentration giving half of the maximal effect – in assay [4] stood at 0.0009 µM. In addition, in assay [5], the Emax worked out at 101%. In addition, the Ratio Ki in assay [3] was 47.

Regarding `CC1CCN(C(=O)c2ccc3c(c2)c2c(n3Cc3ccccc3)CN(C3CCCC3)C2)CC1`, the figures for the inhibitory constant (Ki) in assay [1] and in assay [2] were 0.658 µM and 0.106 µM, respectively. The Ratio Ki in assay [3] is 6.2.

For `CCS(=O)(=O)n1c2c(c3cc(C(=O)N4CCOCC4)ccc31)CN(C1CCCC1)C2`, the inhibitory constant (Ki) in assay [1] is more than 8 µM; in assay [2], 0.308 µM. The Ratio Ki in assay [3] was more than 25.

Take `C=CCn1c2c(c3cc(C(=O)N4CCC(C)CC4)ccc31)CN(C1CCCC1)C2`: the results for the Ki in assay [1] and in assay [2] were 0.695 µM and 0.0233 µM, respectively. The concentration for a half-maximal effect (EC50) in assay [4] amounted to 0.005 µM. Further, the Emax in assay [5] amounted to 92%. The Ratio Ki in assay [3] is 29.8.

Regarding `CC1CCN(C(=O)c2ccc3c(c2)c2c(n3S(=O)(=O)C3CC3)CN(C3CCCC3)C2)CC1`, the Ki turned out to be 0.137 µM in assay [1] and 0.0094 µM in assay [2]. The compound also registered an EC50 in assay [4] of 0.0015 µM. In addition, in assay [5], the Emax turned out to be 101%. Moreover, the Ratio Ki in assay [3] was 14.6.

Turning to `CC(=O)n1c2c(c3cc(C(=O)N4CCC(C)CC4)ccc31)CN(C1CCCC1)C2`, the values for the inhibition constant Ki in assay [1] and in assay [2] were 2.33 µM and 0.0881 µM, respectively. The Ratio Ki in assay [3] was determined as 26.5.

Consider `CCS(=O)(=O)n1c2c(c3cc(C(=O)N4CCC(C)CC4)ccc31)CN(CC1CCCCC1)C2`, for which the Ki was 0.339 µM in assay [1] and 0.935 µM in assay [2]. Moreover, the Ratio Ki in assay [3] stood at 0.4.

For the compound `CCS(=O)(=O)n1c2c(c3cc(C(=O)N4CCC(C)CC4)ccc31)CN(CCC1CCCCC1)C2`, the Ki in assay [1] was 2.74 µM; in assay [2], 1.98 µM. Also, the Ratio Ki in assay [3] was determined as 1.4.

`CCCCCc1cc(O)c2c(c1)CC(C)(C)[C@@H]1CCC(C)=C[C@@H]21`: the values for the Ki in assay [1] and in assay [2] were 0.0201 µM and 0.14 µM, respectively. In assay [4], this compound showed a concentration for a half-maximal effect (EC50) of 0.0135 µM. Moreover, the Emax in assay [5] was determined as 64%. Also, in assay [3], the Ratio Ki was 0.14.

For the compound `CC1CCN(C(=O)c2ccc3c(c2)c2c(n3S(=O)(=O)c3ccccc3)CN(C3CCCC3)C2)CC1`, the Ki in assay [1] stood at 0.259 µM; in assay [2] it was 0.0179 µM. Further, the EC50 in assay [4] is 0.0156 µM. In assay [5], the Emax was -62%. In addition, the Ratio Ki in assay [3] worked out at 14.5.

With `CCCN1Cc2c(n(S(=O)(=O)CC)c3ccc(C(=O)N4CCC(C)CC4)cc23)C1`, the figures for the Ki in assay [1] and in assay [2] were 0.604 µM and 0.0111 µM, respectively. Also, the EC50 in assay [4] was 0.0008 µM. The Emax in assay [5] turned out to be 104%. The Ratio Ki in assay [3] is 54.4.

`CCS(=O)(=O)n1c2c(c3cc(C(=O)N4CCC(F)CC4)ccc31)CN(C1CCCC1)C2`: the Ki in assay [1] was 2.91 µM; in assay [2], 0.0442 µM. The Ratio Ki in assay [3] worked out at 65.9.

For the compound `CCS(=O)(=O)n1c2c(c3cc(C(=O)N4CCC(C)CC4)ccc31)CN(C1CCCCO1)C2` (stereo not drawn), the inhibitory constant (Ki) stood at 6.18 µM in assay [1] and 0.0176 µM in assay [2]. This compound also yielded an EC50 in assay [4] of 0.0017 µM. Besides, in assay [5], the Emax came to 107%. The Ratio Ki in assay [3] was found to be 351.

In the case of `CC1CCN(C(=O)c2ccc3c(c2)c2c(n3S(=O)(=O)C(C)C)CN(C3CCCC3)C2)CC1`, the inhibitory constant (Ki) in assay [1] was found to be 0.15 µM; in assay [2], 0.0042 µM. This compound also gave an EC50 in assay [4] of 0.0005 µM. The Emax in assay [5] was 105%. Also, the Ratio Ki in assay [3] was 35.7.

Consider `CCS(=O)(=O)n1c2c(c3cc(C(=O)N4CCC(OC)CC4)ccc31)CN(C1CCCC1)C2`, for which the Ki in assay [1] amounted to 2.13 µM; in assay [2], 0.0276 µM. The Ratio Ki in assay [3] stood at 77.2.

Take `CCS(=O)(=O)n1c2c(c3cc(C(=O)N4CCCCC4)ccc31)CN(C1CCCC1)C2`: the Ki in assay [1] came out at 0.818 µM; in assay [2], 0.0175 µM. This compound also had a concentration giving a half-maximal response (EC50) in assay [4] of 0.0017 µM. Besides, the Emax in assay [5] turned out to be 107%. Also, in assay [3], the Ratio Ki amounted to 46.7.

As for `CCCS(=O)(=O)n1c2c(c3cc(C(=O)N4CCC(C)CC4)ccc31)CN(C1CCCC1)C2`, the results for the inhibitory constant (Ki) in assay [1] and in assay [2] were 0.195 µM and 0.0223 µM, respectively. Moreover, the EC50 in assay [4] was 0.0067 µM. Moreover, in assay [5], the Emax worked out at 90%. Also, the Ratio Ki in assay [3] came out at 8.7.

Take `CC1CCN(C(=O)c2ccc3[nH]c4c(c3c2)CN(C2CCCC2)C4)CC1`: the inhibitory constant (Ki) in assay [1] was more than 8 µM; in assay [2] it was 4.72 µM.

As for `CCS(=O)(=O)n1c2c(c3cc(C(=O)N4CCC(C)CC4)ccc31)CN(C1CCOC1)C2` (stereo not drawn), the Ki in assay [1] was determined as 0.973 µM; in assay [2] it was 0.0278 µM. In addition, the Ratio Ki in assay [3] was 35.

With `CCS(=O)(=O)n1c2c(c3cc(C(=O)N4CCC(C)CC4)ccc31)CN(CC1CC1)C2`, it took 0.0005 µM to reach a half-maximal effect in assay [4] (EC50). In addition, the inhibition constant (Ki) in assay [2] is 0.0063 µM.

On to `CC1CCN(C(=O)c2ccc3c(c2)c2c(n3S(C)(=O)=O)CN(C3CCCC3)C2)CC1`, for which the inhibition constant (Ki) in assay [1] was determined as 0.279 µM; in assay [2], 0.0079 µM. The compound also gave an EC50 in assay [4] of 0.0006 µM. Besides, the Emax in assay [5] was 105%. For the same compound, in assay [3], the Ratio Ki came out at 35.3.

As to `CCS(=O)(=O)n1c2c(c3cc(C(=O)N(C)C(C)C)ccc31)CN(C1CCCC1)C2`, the inhibition constant Ki in assay [1] is 7.22 µM; in assay [2] it was 0.107 µM. The Ratio Ki in assay [3] was determined as 67.5.

Take `CCS(=O)(=O)n1c2c(c3cc(C(=O)N(C)CCC(C)C)ccc31)CN(C1CCCC1)C2`: the Ki in assay [1] came to 1.47 µM; in assay [2] it was 0.0381 µM. The Ratio Ki in assay [3] is 38.7.

With `CCS(=O)(=O)n1c2c(c3cc(C(=O)N4CCC(C)CC4)ccc31)CN(C1CCOCC1)C2`, the Ki is 3.02 µM in assay [1] and 0.216 µM in assay [2]. Besides, the Ratio Ki in assay [3] amounted to 14.

With `C=CCN1Cc2c(n(S(=O)(=O)CC)c3ccc(C(=O)N4CCC(C)CC4)cc23)C1`, the Ki worked out at 0.263 µM in assay [1] and 0.0064 µM in assay [2]. Also, the response in assay [4] was half-maximal at 0.0003 µM (EC50). For the same compound, the Emax in assay [5] amounted to 104%. For the same compound, the Ratio Ki in assay [3] was found to be 41.1.

`CCCCN(C)C(=O)c1ccc2c(c1)c1c(n2S(=O)(=O)CC)CN(C2CCCC2)C1`: the inhibitory constant (Ki) came to 0.779 µM in assay [1] and 0.0223 µM in assay [2]. Further, it took 0.004 µM to reach a half-maximal effect in assay [4] (EC50). In assay [5], the Emax came to 111%. Also, the Ratio Ki in assay [3] turned out to be 34.9.

With `CCS(=O)(=O)n1c2c(c3cc(C(=O)N4CCC(C)CC4)ccc31)CN(Cc1ccccc1)C2`, the Ki is 1.27 µM in assay [1] and 0.037 µM in assay [2]. Besides, the Ratio Ki in assay [3] amounted to 34.4.

Consider `CCCCN1Cc2c(n(S(=O)(=O)CC)c3ccc(C(=O)N4CCC(C)CC4)cc23)C1`, for which the values for the inhibition constant Ki in assay [1] and in assay [2] were 0.341 µM and 0.0168 µM, respectively. In assay [4], a half-maximal response (EC50) required 0.0027 µM. Besides, in assay [5], the Emax is 105%. In addition, in assay [3], the Ratio Ki was determined as 20.3.
